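These data come from cells grown in 96-well plates and exposed to compound for 48 hours at five concentrations. TGI: concentration producing complete growth inhibition.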
Experiments:
Assay in all cases: NCI-60 cell line screen, 48 h
CCRF-CEM leukemia = test system: CCRF-CEM leukemia
NCI/ADR-RES ovarian = test system: NCI/ADR-RES ovarian
MALME-3M melanoma = test system: MALME-3M melanoma
T-47D breast = test system: T-47D breast
U251 CNS = test system: U251 CNS
SF-539 CNS = test system: SF-539 CNS
PC-3 prostate = test system: PC-3 prostate
A549 NSCLC = test system: A549 NSCLC
NCI-H522 lung = test system: NCI-H522 lung
MCF7 breast = test system: MCF7 breast

CCCCCCCCCCCCCCCCOP(=O)(O)OCC(N)C(=O)O (stereo not given)
TGI (CCRF-CEM leukemia): 65 µM | TGI (NCI/ADR-RES ovarian): > 100 µM | TGI (MALME-3M melanoma): > 100 µM | TGI (T-47D breast): > 100 µM | TGI (U251 CNS): 26.5 µM | TGI (SF-539 CNS): 39.8 µM | TGI (PC-3 prostate): 31.1 µM | TGI (A549 NSCLC): 53.1 µM | TGI (NCI-H522 lung): 42 µM

Nc1[nH]nc2nc3ccccc3nc12
TGI (CCRF-CEM leukemia): > 100 µM | TGI (MCF7 breast): > 100 µM | TGI (NCI/ADR-RES ovarian): > 100 µM | TGI (MALME-3M melanoma): > 100 µM | TGI (U251 CNS): > 100 µM | TGI (SF-539 CNS): > 100 µM | TGI (PC-3 prostate): > 100 µM | TGI (A549 NSCLC): > 100 µM | TGI (NCI-H522 lung): > 100 µM

O=C(/C=C/c1cccc(Oc2ccccc2)c1)NCc1ccc(C(=O)NCCc2ccccc2)cc1
TGI (MCF7 breast): > 100 µM | TGI (NCI/ADR-RES ovarian): > 100 µM | TGI (MALME-3M melanoma): > 100 µM | TGI (T-47D breast): > 100 µM | TGI (U251 CNS): > 100 µM | TGI (SF-539 CNS): > 100 µM | TGI (PC-3 prostate): > 100 µM | TGI (A549 NSCLC): > 100 µM | TGI (NCI-H522 lung): > 100 µM

COC(=O)c1c(C#N)c(N)nc2c1CCC2
TGI (CCRF-CEM leukemia): > 100 µM | TGI (MCF7 breast): > 100 µM | TGI (NCI/ADR-RES ovarian): > 100 µM | TGI (MALME-3M melanoma): > 100 µM | TGI (T-47D breast): > 100 µM | TGI (U251 CNS): > 100 µM | TGI (PC-3 prostate): > 100 µM | TGI (A549 NSCLC): > 100 µM | TGI (NCI-H522 lung): > 100 µM

CCOC(=O)C(Cc1c[nH]c2cc([N+](=O)[O-])ccc12)NS(=O)(=O)c1ccc2ccccc2c1 (stereo not given)
TGI (CCRF-CEM leukemia): 49.1 µM | TGI (U251 CNS): 32.9 µM | TGI (SF-539 CNS): 32.9 µM | TGI (A549 NSCLC): > 100 µM | TGI (NCI-H522 lung): 30.4 µM

c1csc(-c2ccsc2-c2cccs2)c1
TGI (CCRF-CEM leukemia): > 100 µM | TGI (MCF7 breast): > 100 µM | TGI (NCI/ADR-RES ovarian): > 100 µM | TGI (T-47D breast): > 100 µM | TGI (U251 CNS): > 100 µM | TGI (SF-539 CNS): > 100 µM | TGI (A549 NSCLC): 61 µM | TGI (NCI-H522 lung): > 100 µM

OCCN(/N=C\c1ccc2ccccc2c1)C1=NCCN1
TGI (CCRF-CEM leukemia): 71.4 µM | TGI (MCF7 breast): > 100 µM | TGI (MALME-3M melanoma): 29.6 µM | TGI (T-47D breast): > 100 µM | TGI (U251 CNS): 73.8 µM | TGI (SF-539 CNS): 43.6 µM | TGI (PC-3 prostate): > 100 µM | TGI (A549 NSCLC): > 100 µM

Cc1oc2c(c1C)S(=O)(=O)C(C#N)=C(N(C)C)N2
TGI (MCF7 breast): > 100 µM | TGI (NCI/ADR-RES ovarian): > 100 µM | TGI (MALME-3M melanoma): > 100 µM | TGI (T-47D breast): > 100 µM | TGI (U251 CNS): > 100 µM | TGI (SF-539 CNS): > 100 µM | TGI (PC-3 prostate): > 100 µM | TGI (A549 NSCLC): > 100 µM | TGI (NCI-H522 lung): > 100 µM

Cc1csc2c1-n1cccc1C2=O
TGI (CCRF-CEM leukemia): > 100 µM | TGI (MCF7 breast): > 100 µM | TGI (NCI/ADR-RES ovarian): > 100 µM | TGI (MALME-3M melanoma): > 100 µM | TGI (T-47D breast): > 100 µM | TGI (U251 CNS): > 100 µM | TGI (PC-3 prostate): > 100 µM | TGI (A549 NSCLC): > 100 µM | TGI (NCI-H522 lung): > 100 µM

Cn1ncc2c(Cl)ncnc21
TGI (MCF7 breast): > 100 µM | TGI (NCI/ADR-RES ovarian): > 100 µM | TGI (T-47D breast): > 100 µM | TGI (U251 CNS): > 100 µM | TGI (SF-539 CNS): > 100 µM | TGI (PC-3 prostate): > 100 µM | TGI (A549 NSCLC): > 100 µM | TGI (NCI-H522 lung): > 100 µM

O=C(CSc1nc(-c2ccccc2)c(-c2ccccc2)[nH]1)N/N=C/c1ccc(O)cc1
TGI (CCRF-CEM leukemia): > 100 µM | TGI (MALME-3M melanoma): 52.5 µM | TGI (U251 CNS): 49 µM | TGI (SF-539 CNS): 40.5 µM | TGI (A549 NSCLC): 69.5 µM | TGI (NCI-H522 lung): 48.6 µM

O=C(NC(=O)c1cc(-c2ccccc2)n[nH]1)c1ccccc1
TGI (CCRF-CEM leukemia): > 100 µM | TGI (MCF7 breast): > 100 µM | TGI (NCI/ADR-RES ovarian): > 100 µM | TGI (T-47D breast): > 100 µM | TGI (U251 CNS): > 100 µM | TGI (SF-539 CNS): > 100 µM | TGI (PC-3 prostate): > 100 µM | TGI (A549 NSCLC): > 100 µM | TGI (NCI-H522 lung): > 100 µM

Cc1ccc(C2=C(C#N)C(N)OC3=C2COc2ccccc23)cc1 (stereo not given)
TGI (CCRF-CEM leukemia): 76 µM | TGI (MCF7 breast): > 100 µM | TGI (NCI/ADR-RES ovarian): > 100 µM | TGI (MALME-3M melanoma): 82.1 µM | TGI (U251 CNS): 51 µM | TGI (SF-539 CNS): > 100 µM | TGI (PC-3 prostate): 57.2 µM | TGI (A549 NSCLC): > 100 µM

CC1CC/C(=C\c2ccc(F)cc2)C(=O)/C1=C/c1ccc(F)cc1 (stereo not given)
TGI (CCRF-CEM leukemia): 14.5 µM | TGI (MCF7 breast): 16.6 µM | TGI (NCI/ADR-RES ovarian): 5.75 µM | TGI (MALME-3M melanoma): 32.8 µM | TGI (T-47D breast): 21 µM | TGI (U251 CNS): 22.7 µM | TGI (SF-539 CNS): 9.15 µM | TGI (PC-3 prostate): 28.3 µM

Clc1ccc(-c2cn3c(nc4ccccc43)c(/C=C/c3ccco3)n2)cc1
TGI (MCF7 breast): > 100 µM | TGI (NCI/ADR-RES ovarian): > 100 µM | TGI (MALME-3M melanoma): > 100 µM | TGI (T-47D breast): > 100 µM | TGI (U251 CNS): > 100 µM | TGI (SF-539 CNS): > 100 µM | TGI (A549 NSCLC): > 100 µM

CC(O)(P(=O)(O)O)P(=O)(O)OCC(O)CN1CCOCC1 (stereo not given)
TGI (CCRF-CEM leukemia): > 100 µM | TGI (MCF7 breast): > 100 µM | TGI (NCI/ADR-RES ovarian): > 100 µM | TGI (MALME-3M melanoma): > 100 µM | TGI (U251 CNS): > 100 µM | TGI (SF-539 CNS): > 100 µM | TGI (PC-3 prostate): > 100 µM | TGI (A549 NSCLC): > 100 µM | TGI (NCI-H522 lung): > 100 µM

COc1ccc([C@@H]2CC(=O)N2)cc1
TGI (CCRF-CEM leukemia): > 100 µM | TGI (MALME-3M melanoma): > 100 µM | TGI (U251 CNS): > 100 µM | TGI (SF-539 CNS): > 100 µM | TGI (A549 NSCLC): > 100 µM | TGI (NCI-H522 lung): > 100 µM

CCOC(=O)NC(OC)(C(F)(F)F)C(F)(F)F
TGI (CCRF-CEM leukemia): > 100 µM | TGI (MCF7 breast): > 100 µM | TGI (NCI/ADR-RES ovarian): > 100 µM | TGI (MALME-3M melanoma): > 100 µM | TGI (U251 CNS): > 100 µM | TGI (SF-539 CNS): > 100 µM | TGI (PC-3 prostate): > 100 µM | TGI (A549 NSCLC): > 100 µM | TGI (NCI-H522 lung): > 100 µM

NNC(=S)NCCNC(=S)NN
TGI (CCRF-CEM leukemia): > 100 µM | TGI (MALME-3M melanoma): > 100 µM | TGI (T-47D breast): > 100 µM | TGI (U251 CNS): > 100 µM | TGI (PC-3 prostate): > 100 µM | TGI (A549 NSCLC): > 100 µM | TGI (NCI-H522 lung): > 100 µM

CC(C)(C)OC(=O)CN1CCNCCN(CC(=O)OC(C)(C)C)CCNCC1
TGI (CCRF-CEM leukemia): > 100 µM | TGI (MCF7 breast): > 100 µM | TGI (NCI/ADR-RES ovarian): > 100 µM | TGI (U251 CNS): > 100 µM | TGI (SF-539 CNS): > 100 µM | TGI (PC-3 prostate): > 100 µM | TGI (A549 NSCLC): > 100 µM | TGI (NCI-H522 lung): > 100 µM

O=C(O)c1cnc(-n2[nH]c3c(c2=O)CCCC3)[nH]c1=O
TGI (CCRF-CEM leukemia): > 100 µM | TGI (NCI/ADR-RES ovarian): > 100 µM | TGI (MALME-3M melanoma): > 100 µM | TGI (T-47D breast): > 100 µM | TGI (U251 CNS): > 100 µM | TGI (SF-539 CNS): > 100 µM | TGI (PC-3 prostate): > 100 µM | TGI (A549 NSCLC): > 100 µM | TGI (NCI-H522 lung): > 100 µM

C=C1C(O)C[C@H](OC(C)=O)[C@]2(C)C1C(OC(C)=O)[C@]1(C(C)(C)O)CC(O)C(C)=C1[C@@H](OC(=O)c1ccccc1)C2OC(C)=O (stereo not given in full)
TGI (CCRF-CEM leukemia): > 10 µM | TGI (MCF7 breast): > 10 µM | TGI (NCI/ADR-RES ovarian): > 10 µM | TGI (T-47D breast): > 10 µM | TGI (U251 CNS): > 10 µM | TGI (SF-539 CNS): > 10 µM | TGI (PC-3 prostate): > 10 µM | TGI (A549 NSCLC): > 10 µM | TGI (NCI-H522 lung): > 10 µM

O=C(c1ccc(Cl)cc1)N(C(=S)N1CCN(c2ccccn2)CC1)C1CCCCC1
TGI (CCRF-CEM leukemia): > 100 µM | TGI (MALME-3M melanoma): > 100 µM | TGI (U251 CNS): > 100 µM | TGI (SF-539 CNS): > 100 µM | TGI (A549 NSCLC): > 100 µM | TGI (NCI-H522 lung): > 100 µM

C/C=C1\CN(C(=O)OC(C)(C)C)C1C(=O)OC(C)(C)C (stereo not given)
TGI (CCRF-CEM leukemia): > 100 µM | TGI (MCF7 breast): > 100 µM | TGI (NCI/ADR-RES ovarian): > 100 µM | TGI (MALME-3M melanoma): > 100 µM | TGI (SF-539 CNS): > 100 µM | TGI (PC-3 prostate): > 100 µM | TGI (A549 NSCLC): > 100 µM

O=C(CCC=C(S(=O)(=O)c1ccccc1)S(=O)(=O)c1ccccc1)c1ccccc1
TGI (MCF7 breast): 17.1 µM | TGI (NCI/ADR-RES ovarian): 25.8 µM | TGI (MALME-3M melanoma): 17.9 µM | TGI (T-47D breast): 44.4 µM | TGI (U251 CNS): 15.6 µM | TGI (SF-539 CNS): 6.57 µM | TGI (PC-3 prostate): 14.2 µM | TGI (A549 NSCLC): 49.6 µM | TGI (NCI-H522 lung): 9.45 µM

Source: PubChem BioAssay (NCI)
